Assay results from patent US10179770B2, “Quinolines derivatives as novel anticancer agents” (GENOSCIENCE PHARMA, priority 2013, dated 2019).

How the values were obtained:
[1] = tested on: A375; test: Cell proliferation assay at 10 μM; assay type: cell-based, human; settings: Homo sapiens, A-375, 72 h, read-out: Cell viability observed at 10 μM
Procedure, shortened: (§1)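 A375 and HCT-116 cells grown in DMEM with 10% FBS, seeded overnight, then exposed to compound at 10 μM for 72 h at 37 °C, 5% CO2 against vehicle control. Outgrowth read by MTS (CellTiter 96 Aqueous One) absorbance; each point the mean of two replicates.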

[2] = tested on: KG-1; test: EC50 determination in cancer cell lines; assay type: cell-based; settings: Homo sapiens, 72 h
Description: (§2) Compounds were added at different concentrations to each well, and cell cultures were incubated for 72 h. Vehicle (DMSO or H2O) was used as a control, and all compounds were tested in a constant percentage of vehicle. Cell outgrowth was measured using for adherent cells CellTiter […] Aqueous One Solution Cell Proliferation Assay (Promega) and for cell suspension, Sulforhodamine B colorimetric assay as described in Vichai et al. (Vichai, V. and Kirtikara, K. Nat. Protoc. 2006 (1) 1112-1116). Absorbance was measured using an Infinite F200 Pro or Sunrise TECAN plate reader.
(§3) The human melanoma cell line A375, colorectal carcinoma cell line HCT-116, hepatocellular carcinoma cell line HepG2 were cultured in Dulbecco's modified Eagle's medium supplemented with 10% fetal bovine serum and 1% Penicillin-Streptomycin. The human melanoma cell lines SK-MEL-28 and SK-MEL-5 were cultured in Minimum Essential Medium. The colorectal carcinoma cell lines HT-29 and Colo205 were respectively cultured in Mc Coy's and RPMI media. The human leukemia cell lines MV4-11 and KG-1 were cultured in Iscove's Modified Dulbecco's Media. The human leukemia cell line MOLM-14 was cultured in Minimum Essential Medium Alpha Medium supplemented with 10% Fetal Bovine Serum and 1% Penicillin-Streptomycin All culture media were supplemented with 10% fetal bovine serum and 1% Penicillin-Streptomycin except for MV4-11 cell line 20% fetal bovine serum and 1% Penicillin-Streptomycin. All the cell lines were maintained at 37° C. with 5% C02.
(§4) Briefly, adherent cells, A375, HCT-116, HepG2, SK-MEL-28, SK-MEL-5, HT-29 and Colo205 cells were respectively plated at 800, 5,000, 7,000, 2,500, 3,000-5,000, 5,000 or 5,000 cells per well onto 96-well plates in 90 μL of media per well and were allowed to grow overnight before the assay. For MV4-11 and KG-1 cells that grow in suspension, 40,000-60,000 cells were plated onto 96-well plates immediately before the assay. MOLM-14 cell line, that grow in suspension, 30,000 cells were plated onto 96-well plates immediately before the assay.
(§5) The cell growth measure was the same as described in example 51.
(§6) The experimental data are analyzed using a computer program, Graphpad Prism (GraphPad Software, Inc. La Jolla, Calif.) and EC50 values were determined as the dose of compound required to reduce absorbance values to 50% of the signal obtained for vehicle treated cell cultures and were a mean of at least two independent experiments except for EC50 values with (*) where […].

[3] = tested on: MOLM-14; test: EC50 determination in cancer cell lines; assay type: cell-based; settings: Homo sapiens, 72 h
Description: as §2, §3, §4, §5, §6

[4] = tested on: MV4-11; test: EC50 determination in cancer cell lines; assay type: cell-based; settings: Homo sapiens, 72 h
Description: as §2, §3, §4, §5, §6

[5] = tested on: SK-MEL-28; test: EC50 determination in cancer cell lines; assay type: cell-based; settings: Homo sapiens, 72 h
Description: as §2, §3, §4, §5, §6

[6] = tested on: SK-MEL-5; test: EC50 determination in cancer cell lines; assay type: cell-based; settings: Homo sapiens, 72 h
Description: as §2, §3, §4, §5, §6

[7] = tested on: A-375; test: EC50 determination in cancer cell lines; assay type: cell-based, human; settings: Homo sapiens, A-375, 72 h
Description: as §2, §3, §4, §5, §6

[8] = tested on: HCT-116; test: Cell proliferation assay at 10 μM; assay type: cell-based; settings: Homo sapiens, HCT-116, 72 h, read-out: Cell viability observed at 10 μM
Procedure, shortened: as §1

[9] = tested on: MOLM-14; test: Cell proliferation assay at 10 μM; assay type: cell-based, human; settings: Homo sapiens, MOLM-14, 72 h, read-out: Cell viability observed at 10 μM
Procedure, shortened: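 MOLM-14 suspension cells (30,000/well, MEM alpha with 10% FBS) treated with compound at 10 μM, constant vehicle percentage, for 72 h at 37° C. Outgrowth measured by sulforhodamine B absorbance; each point is mean of two replicates.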

[10] = tested on: patient derived acute myeloid leukemia (AML) cell lines; test: Cell growth inhibition assay, patient derived AML cells; assay type: cell-based, human; settings: Homo sapiens, 48 h
Description: The patient derived acute myeloid leukemia (AML) cells were obtained after written informed consent under the Institut Paoli Calmette (IPC) institutional review board approval and under the strict compliance of the Helsinki declaration on medical research involving human subjects. […] Each compound was added at different concentrations (combinations of six concentrations) to each well, and cell cultures were incubated for 48 h. Vehicle (H2O) was used as a control, and all compounds were tested in a constant percentage of vehicle. Cell outgrowth was measured using the CellTiter-Glo luminescent cell viability assay as described by the manufacturer (Promega, Ref G7571 Madison, Wis., USA) using a Centro (Berthold, France) plate reader. In each experiment, each point represents the average of triplicates in cell culture. The experimental data are analyzed using a computer program, Graphpad Prism (GraphPad Software, Inc.

[11] = tested on: HT-29; test: EC50 determination in cancer cell lines; assay type: cell-based; settings: Homo sapiens, 72 h, * n>2
Description: as §2, §3, §4, §5, §6

[12] = tested on: HepG2; test: EC50 determination in cancer cell lines; assay type: cell-based, human; settings: Homo sapiens, HepG2, 72 h
Description: as §2, §3, §4, §5, §6

[13] = tested on: HCT-116; test: EC50 determination in cancer cell lines; assay type: cell-based, human; settings: Homo sapiens, HCT-116, 72 h
Description: as §2, §3
Briefly, adherent cells, A375, HCT-116, HepG2, SK-MEL-28, SK-MEL-5, HT-29 and Colo205 cells were respectively plated at 800, 5,000, 7,000, 2,500, 3,000-5,000, 5,000 or 5,000 cells per well onto 96-well plates in 90 μL of media per well and were allowed to grow overnight before the assay. For MV4-11 and KG-1 cells that grow in suspension, 40,000-60,000 cells were plated onto 96-well plates immediately before the assay. MOLM-14 cell line, that grow in suspension, 30,000 cells were plated onto 96-well plates immediately before the assay. […]
as §6

SMILES | viability at 10 µM [1] [%] | EC50 [2] [µM] | EC50 [3] [µM] | EC50 [4] [µM] | EC50 [5] [µM] | EC50 [6] [µM] | EC50 [7] [µM] | viability at 10 µM [8] [%] | viability at 10 µM [9] [%] | EC50 ([10]; Patient 3, subtype Tri8) [µM] | EC50 ([10]; Patient 8, subtype FLT3−) [µM] | EC50 ([10]; Patient 9, subtype FLT3+) [µM] | EC50 ([10]; Patient 10, subtype Inv 3) [µM] | EC50 ([10]; Patient 12, subtype 5 & 7) [µM] | EC50 ([10]; Patient 13, subtype MLL) [µM] | EC50 ([10]; Patient 16, subtype Inv 3) [µM] | EC50 [11] [µM] | EC50 [12] [µM] | EC50 [13] [µM]
CC(C)(C)NC1CCN(c2cc(-c3ccc(Cl)cc3)nc3ccccc23)CC1.Cl.Cl [XII-4, 2-(4-chloro-phenyl)-4-(4-N-tert-butylamino-piperidin-1-yl)quinoline dihydrochloride] | < 20 | 4 | 3 | 2 | 3 | 5 | 5 | < 20 | < 20 | 5 | 21 | > 40 | 25 | > 40 | 27 | 19 | – | – | –
CCN(CC)C1CCN(C(C)c2cc(-c3ccccc3)nc3ccccc23)CC1.Cl.Cl (stereo not shown) [XIX-3, 2-phenyl-4-{1-[4-(N,N-diethylamino)piperidin-1-yl]-eth-1-yl}quinoline dihydrochloride] | < 20 | 14 | 11 | 9 | 6 | 6 | 9 | 20 to 40 | 20 to 40 | 8 | 21 | 18 | 28 | 16 | 16 | 22 | 18 | 22 | 12
CCN(CC)C1CCN(C(C)c2cc(-c3ccc4ccccc4c3)nc3ccccc23)CC1.Cl.Cl (stereo not shown) [XXIV-3, 2-(2-naphtyl)-4-{1-[4-(N,N-diethylamino)-piperidin-1-yl]-eth-1-yl}quinoline dihydrochloride] | < 20 | 4 | 4 | 3 | 3 | 3 | 3 | < 20 | < 20 | 2 | 10 | 17 | 13 | 11 | 8 | 6 | 7 | 11 | 4
Cc1ccc(-c2cc(N3CCC(NC(C)(C)C)CC3)c3ccccc3n2)cc1.Cl.Cl [XIII-8, 2-(4-methyl-phenyl)-4-(4-N-tert-butylamino-piperidin-1-yl)quinoline dihydrochloride] | < 20 | 9 | 3 | 2 | 5 | 7 | 6 | < 20 | < 20 | 15 | 27 | 22 | 35 | 21 | 25 | 24 | 16 | 17 | 8
